Data: US11667652B2, “MCL1 inhibitors” (Gilead Sciences, Inc., priority 2019, dated 2023)
Like-named read-outs stand apart in the source and are kept apart here.

Key:
[1] = target: MCL1/Bim (Homo sapiens (Human), UniProt Q07820); test: MCL1/Bim Binding AlphaLISA Assay; details: recombinant human 6xHis-MCL1 (171-327), biotinylated Bim peptide (51-76)
Protocol: MCL1/Bim Binding AlphaLISA Assay.
Inhibition of the MCL1 and Bim interaction was measured in the following AlphaLISA assay.
Recombinant human MCL1 protein (C-terminal 6×His Tagged MCL1 containing residues 171-327) was generated at Gilead Sciences, Inc. (Foster City, Calif.). A biotinylated peptide derived from human Bim (residues 51-76) was purchased from CPC Scientific (Sunnyvale, Calif.). (CPC 834113). AlphaLISA anti-6His- acceptor beads (AL128R), AlphaScreen Streptavidin donor beads (6760002B), and Proxiplate-384 Plus (6008289) were purchased from PerkinElmer.
The AlphaLISA assay was performed in a 384-well Proxiplate in a total volume of […]. The reaction mixture contained 0.0625 nM 6×His-MCL1 (171-327), 0.0625 nM biotinylated-Bim peptide, 10 μg/mL AlphaLISA anti-6×His-AlphaLISA acceptor beads, 40 μg/mL AlphaScreen streptavidin donor beads, and serially diluted test compounds in the binding buffer (20 mM Hepes, pH 7.5 (Teknova H1035); 150 mM NaCl (Promega V4221); 0.002% Brij 35 (Thermo Scientific 20150); 1 mM Dithiothreitol (DTT) Solution (Affymetrix 70726); 0.01% BSA (BioLabs B9000S)). 1,000× test compounds were pre-spotted onto 384-well Proxiplate (Labcyte Echo) by Echo 555 Liquid Handler (Labcyte Inc., San Jose, Calif.) followed by incubation of 5 μL MCL1(171-327) for 1 hour. Then 5 μL Bim (51-76) was added and incubated for 2 hours. Five μL AlphaLISA anti-6His-AlphaLISA acceptor beads were then added for 1 hour followed by addition of 5 μL AlphaScreen streptavidin donor beads for 1 hour. The reaction plates were then read on an Envision multimode reader (PerkinElmer) using AlphaScreen settings. Percent inhibition was calculated as shown below: % Inhibition=100%*(Well−Neg)/(Pos−Neg) Neg: negative control, DMSO Pos: positive control, no MCL1 protein, no biotinylated-Bim peptide

[2] = tested on: SKBR3 cells; test: SKBR3 Cell Viability Assay; assay type: cell-based; details: CellTiter Glo, read-out: MCL1 CV SKBR3 EC50
Protocol: SKBR3 Cell Viability Assay Materials
SKBR3 Cells (ATCC HTB-30) were obtained from ATCC (Manassas, Va.) and cultured in McCoy 5A's medium (ATCC 30-2007)+10% fetal bovine serum (SH30071.03, HyClone, Pittsburgh, Pa.) plus 1× Penicillin-Streptomycin L-glutamine (Corning 30-009-CI, Corning, N.Y.).
The cell viability assay was conducted in a 384-well tissue culture plate (Grenier 781086, Monroe, N.C.) in a total volume of 70 μL. Test compounds were prepared in 1,000×, serially diluted, and pre-spotted into 384-well tissue culture plate by Echo 555 Liquid Handler (Labcyte Inc., San Jose, Calif.). Seventy μL of 6,000 SKBR3 cells were dispensed into each well of the plate and incubated at 37° C. with 5% CO2 for 72 hours. At the end of incubation, 2× CellTiter Glo (CTG) reagents (1 part buffer with 2 parts substrate) (Promega, Madison, Wis.) were prepared, and the plate and the reagent were equilibrated to room temperature for 30 minutes. CTG reagent was added to each plate by Biomek FX at 20 μL/well with 5 times pipetting and mixing to induce cell lysis. Luminescence was read by Envision multimode reader (PerkinElmer). Percent inhibition was calculated as followed: % Inhibition=100%*(Well−Neg)/(Pos−Neg) Neg, negative control, DMSO Pos, positive control, 10 μM Puromycin

[3] = Homo sapiens, SK-BR-3, 72 hours

Chain of MCL1/Bim (Q07820 171-327): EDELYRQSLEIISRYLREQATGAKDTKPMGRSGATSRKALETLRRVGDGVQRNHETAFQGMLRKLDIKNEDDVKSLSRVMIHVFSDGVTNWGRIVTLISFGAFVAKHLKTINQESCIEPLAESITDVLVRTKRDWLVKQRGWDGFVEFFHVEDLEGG

SMILES: CO[C@H]1/C=C/C[C@H](C)[C@@H](C)[S@@](=O)(NC(=O)c2cnn(C)c2)=NC(=O)c2ccc3c(n2)N(C[C@@H]2CC[C@H]21)C[C@]1(CO3)C[C@@H]2C[C@@H]2c2cc(Cl)ccc21 [Example 205]
- IC50 [1]: 0.06 nM
- EC50 [2, 3]: 81.3 nM

SMILES: COc1nn(C)cc1C(=O)N[S@@]1(=O)=NC(=O)c2ccc3c(c2)N(C[C@@H]2CC[C@H]2[C@@](O)(CC(=O)N2CCN(C)CC2)/C=C/C[C@H](C)C1)C[C@@]1(CCCc2cc(Cl)ccc21)CO3 [Example 100]
- IC50 [1]: 0.038 nM
- EC50 ([2]; 72 hours): 35.4 nM

SMILES: COc1nn(C)cc1C(=O)N[S@@]1(=O)=NC(=O)c2ccc3c(c2)N(C[C@@H]2CC[C@H]2[C@@H](OC)/C=C/[C@H](Oc2ccccn2)[C@H](C)C1)C[C@@]1(CCCc2cc(Cl)ccc21)CO3 [Example 77]
- IC50 [1]: 0.905 nM
- EC50 [2, 3]: 477 nM

SMILES: COc1nn(C)cc1C(=O)N[S@@]1(=O)=NC(=O)c2ccc3c(c2)N(C[C@@H]2CC[C@H]2[C@@H](OC)C[C@@H]2[C@H](OC[C@H]2C)[C@H](C)C1)C[C@@]1(CCCc2ccccc21)CO3 [Example 147]
- IC50 [1]: 0.394 nM
- EC50 ([2]; 72 hours): 532 nM

SMILES: CO[C@H]1/C=C/C[C@H](C)C[S@@](=O)(NC(=O)NC2CC2)=NC(=O)c2ccc3c(n2)N(C[C@@H]2CC[C@H]21)C[C@@]1(CCCc2cc(Cl)ccc21)CO3 [Example 187]
- IC50 [1]: 0.04 nM
- EC50 [2, 3]: 47.8 nM

SMILES: COc1nn(C)cc1C(=O)N[S@@]1(=O)=NC(=O)c2ccc3c(c2)N(C[C@@H]2CC[C@H]2[C@@H](OC)/C=C/[C@@](C)(O)[C@H](C)C1)C[C@@]1(CCCc2cc(Cl)ccc21)CO3 [Example 120]
- IC50 [1]: 0.034 nM
- EC50 ([2]; 72 hours): 35.2 nM

SMILES: COc1nn(C)cc1C(=O)N[S@@]1(=O)=NC(=O)c2ccc3c(c2)N(C[C@@H]2CC[C@H]2[C@](O)(C#CCN(C)C)/C=C/C[C@H](C)C1)C[C@@]1(CCCc2cc(Cl)ccc21)CO3 [Example 109]
- IC50 [1]: 0.028 nM
- EC50 ([2]; 72 hours): 35.3 nM

SMILES: COc1nn(C)cc1C(=O)N[S@@]1(=O)=NC(=O)c2ccc3c(c2)N(C[C@@H]2CC[C@H]2[C@@H](OC)/C=C/[C@@H](OC)[C@H](C)C1)C[C@@]1(CCCc2cc(Cl)ccc21)CO3 [Example 93]
- IC50 [1]: 0.457 nM
- EC50 [2, 3]: 556 nM

SMILES: COc1nn(C)cc1C(=O)N[S@@]1(=O)=NC(=O)c2ccc3c(c2)N(C[C@@H]2CC[C@H]2[C@@H](OC)C[C@H]2CC(O)O[C@@H]2[C@H](C)C1)C[C@@]1(CCCc2cc(Cl)ccc21)CO3 (some centres unmarked) [Example 139]
- IC50 [1]: 0.071 nM
- EC50 [2, 3]: 198 nM

SMILES: COc1ncc2c(N[S@@]3(=O)=NC(=O)c4ccc5c(c4)N(C[C@@H]4CC[C@H]4[C@@H](OC)/C=C/C[C@H](C)C3)C[C@@]3(CCCc4cc(Cl)ccc43)CO5)ncnc2n1 [Example 22]
- IC50 [1]: 0.121 nM
- EC50 [2, 3]: 169 nM

SMILES: CO[C@H]1/C=C/CCC[S@@](=O)(NC(=O)c2cc3n(c2)CCOC3)=NC(=O)c2ccc3c(c2)N(C[C@@H]2CC[C@H]21)C[C@]1(CO3)SCCc2cc(Cl)ccc21 [Example 184]
- IC50 [1]: 0.26 nM
- EC50 [2, 3]: 262 nM

SMILES: COc1nn(C)cc1C(=O)N[S@@]1(=O)=NC(=O)c2ccc3c(c2)N(C[C@@H]2CC[C@H]2[C@@](CN2CCN4CCOC[C@@H]4C2)(OC)/C=C/C[C@H](C)C1)C[C@@]1(CCCc2cc(Cl)ccc21)CO3 [Example 112]
- IC50 [1]: 0.086 nM
- EC50 [2, 3]: 10.4 nM

SMILES: COc1nn(C)cc1C(=O)N[S@@]1(=O)=NC(=O)c2ccc3c(c2)N(C[C@@H]2CC[C@H]2[C@](CN2CCN(C4COC4)CC2)(OC)/C=C/C[C@H](C)C1)C[C@@]1(CCCc2cc(Cl)ccc21)CO3 [Example 115]
- IC50 [1]: 0.029 nM
- EC50 [2, 3]: 16 nM

SMILES: COc1nn(C)cc1C(=O)N[S@@]1(=O)=NC(=O)c2ccc3c(n2)N(C[C@@H]2CC[C@H]2[C@@H](OC)/C=C/[C@H](OC)[C@H](C)C1)C[C@@]1(CCCc2cc(Cl)ccc21)CO3 [Example 198]
- IC50 [1]: 0.05 nM
- EC50 ([2]; 72 hours): 22.3 nM

SMILES: COc1nn(C)cc1C(=O)N[S@@]1(=O)=NC(=O)c2ccc3c(c2)N(C[C@@H]2CC[C@H]2[C@@H](OC)/C=C/[C@H](NC(C)=O)[C@H](C)C1)C[C@@]1(CCCc2cc(Cl)ccc21)CO3 [Example 118]
- IC50 [1]: 0.634 nM
- EC50 ([2]; 72 hours): 2520 nM

SMILES: COc1nn(C)cc1C(=O)N[S@@]1(=O)=NC(=O)c2ccc3c(c2)N(C[C@@H]2CC[C@H]2/C=C/C=C\[C@H](C)C1)C[C@@]1(CCCc2cc(Cl)ccc21)CO3 [Example 131]
- IC50 [1]: 0.087 nM
- EC50 [2, 3]: 546 nM

SMILES: CO[C@@H]1/C=C\C[C@H](C)C[S@@](=O)(Nc2ncnc3nn(C)cc23)=NC(=O)c2ccc3c(c2)N(C[C@@H]2CC[C@H]21)C[C@@]1(CCCc2cc(Cl)ccc21)CO3 [Example 27]
- IC50 [1]: 0.103 nM
- EC50 [2, 3]: 40 nM

SMILES: COc1nn(C)cc1C(=O)N[S@@]1(=O)=NC(=O)c2ccc3c(c2)N(C[C@@H]2CC[C@H]2C/C=C/C[C@H](C)C1)C[C@@]1(CCCc2cc(Cl)ccc21)CO3 (mixture of isomers) [Example 130]
- IC50 [1]: 0.46 nM
- EC50 ([2]; 72 hours): 2560 nM

SMILES: COc1nn(C)cc1C(=O)N[S@@]1(=O)=NC(=O)c2ccc3c(c2)N(C[C@@H]2CC[C@H]2[C@@H](OC)/C=C/[C@H](OCCN2CC(N(C)C)C2)[C@H](C)C1)C[C@@]1(CCCc2cc(Cl)ccc21)CO3 [Example 80]
- IC50 [1]: 0.253 nM
- EC50 [2, 3]: 27.5 nM

SMILES: CO[C@H]1/C=C/C[C@H](C)C[S@@](=O)(Nc2nc(N(C)C)nc3nn(C)cc23)=NC(=O)c2ccc3c(c2)N(C[C@@H]2CC[C@H]21)C[C@@]1(CCCc2cc(Cl)ccc21)CO3 [Example 19]
- IC50 [1]: 0.066 nM
- EC50 [2, 3]: 37.8 nM

SMILES: C[C@H]1C/C=C/[C@H](O)[C@@H]2CC[C@H]2CN2C[C@@]3(CCCc4cc(Cl)ccc43)COc3ccc(cc32)C(=O)N=[S@](=O)(Nc2nc(N)nc3nn(C)cc23)C1 [Example 32]
- IC50 [1]: 0.057 nM
- EC50 [2, 3]: 18.5 nM

SMILES: CO[C@H]1/C=C/CCC[S@@](=O)(NC(=O)NC2CC2)=NC(=O)c2ccc3c(c2)N(C[C@@H]2CC[C@H]21)C[C@]1(CO3)C[C@@H]2C[C@@H]2c2cc(Cl)ccc21 [Example 175]
- IC50 [1]: 0.24 nM
- EC50 [2, 3]: 638 nM

SMILES: C=CC[C@@H]1C[C@@H]2C[C@H](OC)[C@@H]3CC[C@H]3CN3C[C@@]4(CCCc5cc(Cl)ccc54)CCc4ccc(cc43)C(=O)N=[S@](=O)(NC(=O)c3cn(C)nc3OC)C[C@@H](C)[C@H]2O1 [Example 141]
- IC50 [1]: 0.677 nM
- EC50 ([2]; 72 hours): 882 nM

SMILES: COc1nn(C)cc1C(=O)N[S@@]1(=O)=NC(=O)c2ccc3c(c2)N(C[C@@H]2CC[C@H]2[C@@H]2/C=C/[C@@H](OCCCC(=O)O2)[C@H](C)C1)C[C@@]1(CCCc2cc(Cl)ccc21)CO3 [Example 157]
- IC50 [1]: 0.366 nM
- EC50 ([2]; 72 hours): 229 nM

SMILES: CO[C@H]1/C=C/[C@H](OC)[C@H](C)C[S@@](=O)(NC(=O)c2cn(C)nc2OCCN2CCOCC2)=NC(=O)c2ccc3c(c2)N(C[C@@H]2CC[C@H]21)C[C@@]1(CCCc2cc(Cl)ccc21)CO3 [Example 70]
- IC50 [1]: 0.198 nM
- EC50 ([2]; 72 hours): 92.9 nM

SMILES: COc1nn(C)cc1C(=O)N[S@@]1(=O)=NC(=O)c2ccc3c(c2)N(C[C@@H]2CC[C@H]2[C@H]2OCC[C@@H]2C[C@H](OC)[C@H](C)C1)C[C@@]1(CCCc2cc(Cl)ccc21)CO3 (mixture of isomers) [Example 155]
- IC50 [1]: 0.072 nM
- EC50 [2, 3]: 88.9 nM

SMILES: CO[C@H]1/C=C/C[C@H](C)C[S@@](=O)(NC(=O)c2cc3n(c2)CCOC3)=NC(=O)c2ccc3c(n2)N(C[C@@H]2CC[C@H]21)C[C@@]1(CCCc2cc(Cl)ccc21)CO3 [Example 186]
- IC50 [1]: 0.07 nM
- EC50 [2, 3]: 26.6 nM

SMILES: COc1nn(C)cc1C(=O)N[S@@]1(=O)=NC(=O)c2ccc3c(c2)N(C[C@@H]2CC[C@H]2[C@@](O)(CC(=O)N2CC(N4CCOCC4)C2)/C=C/C[C@H](C)C1)C[C@@]1(CCCc2cc(Cl)ccc21)CO3 [Example 106]
- IC50 [1]: 0.038 nM
- EC50 ([2]; 72 hours): 133 nM
